Assay [1] concerns C. formosanus. Nature of the assay: Trail-following bioassay. It is filed as in vivo, Coptotermes formosanus Shiraki. The procedure: (§1) C. formosanus workers were used in the initial bioassay for trail-following behavior. The trail-following bioassay was conducted on two overlapped pencil circles of radius 3 cm. The circumference of each circle passed through the center of the other circle. Each sample was streaked along one of the circles with a 4 μl-micropipette on nonabsorptive paper. A solvent (control) was streaked along the overlapping circle. After the solvent evaporated, one worker was placed in the center of overlap between the two circles. The arena was covered with a red plastic container to reduce visible light and extraneous air flow. To score the worker's activity, one point was given for each continuous 3 cm traveled by a termite over a one minute period. Three replications were performed for each fraction. A new termite was used and new circles were drawn for each trial.
(§2) Trail-following bioassays with standard 2-phenoxyethanol followed procedures that were essentially identical to those for the HPLC fraction screening bioassay described above, except that each trial was replicated 10 times; and that workers and soldiers of both C. formosanus and Reticulitermes spp. were tested. Four concentrations of 2-phenoxyethanol, 0.32, 0.032, 0.0032, 0.00032 μg/cm were used in the bioassays.

For assay [2], the system named is Reticulitermes spp. Nature of the assay: Trail-following bioassay. Format: in vivo. The procedure:
as §1, §2

The test system of assay [3] is Mucor spp. fungus. Nature of the assay: Antifungal filter paper disk test, trial 1 (Sabouraud dextrose agar). Format: cell-based. The method, then: Mucor was isolated from a Formosan termite nest in our laboratory, a nest originally collected from a cottonwood tree in New Orleans, La. The fungus comprised a white mat that covered large areas of the nest that had been exposed to air and water. Fungus was scraped from the nest and suspended in distilled, de-ionized water with a Pasteur pipette. This suspension was streaked on Sabouraud dextrose agar (“SDA”) (Difco Laboratories, Detroit, Mich.) in 100×15 mm plates containing 20 mL SDA. Pure cultures were obtained from individual colonies on these plates as needed. Cultures were maintained on SDA plates in a 27° C. incubator without light until used.
Filter paper disks (Whatman #1, 1.5 cm) were treated with naphthalene, butylated hydroxytoluene (BHT), dioctyl phthalate, or adipic dioctyl ester, at rates of 2 μg, 20 μg, or 200 μg, dissolved in 100 μL hexane. Controls were treated with hexane alone. For each treatment, just prior to testing for antifungal properties, 1 mL of the hexane solution and ten filter paper disks were placed in a vial, and N2 was used to evaporate the hexane.
A suspension was prepared by scraping Mucor conidia (spores) from the culture plates, and mixing into distilled, deionized water with a Pasteur pipette. A thin layer of this suspension was spread over the surface of each of 130 SDA plates by placing each plate onto an inoculation turntable (Fisher Scientific, Hampton, N.H.), pipetting 0.2 mL of the suspension into the center of the plate, spinning the turntable, and spreading the suspension onto the agar with a bent glass rod. The plates were allowed to dry for two hours. A treated filter paper disk was then placed in the center of each plate (10 plates/treatment), and the plates were incubated at 27° C. The extent to which each filter paper disk was covered by fungus was determined by visual inspection (by the method described in greater detail below) after four, five, and six days.
(§3) Fungal growth on each filter paper disk was recorded by making tracings of the disks, inking in areas with visible fungal growth. The fraction of each disk covered by fungus was measured by making photocopy enlargements of these drawings, cutting out the enlarged disks, weighing the entire circle, cutting out the inked areas of the circle (corresponding to fungal growth), and weighing the latter. The fraction of each circle covered with fungus was then calculated as the ratio of these weights. (The weight of the photocopy toner was negligible.)
(§4) Coverage of filter paper disks was analyzed by the ANOVA procedure (SAS Institute, Version 6.11, Cary, N.C.). Tukey's Studentized Range (HSD) Test was used for comparison of mean separations (α=0.05).

Assay [4] deals with Mucor spp. fungus. Nature of the assay: Antifungal filter paper disk test, trial 2 (cornmeal agar, sealed plates). Format: cell-based. The method, then:
A second trial was conducted with filter papers treated with naphthalene, BHT, or 2,6-di-t-butyl-4-methyl-phenol (“DBP”). A fungal suspension was prepared as in the first trial. Spore concentrations were determined with a counting chamber (Petroff-Hauser, Hauser Scientific Partnership, Horsham, Pa.). Concentrations were adjusted to approximately 10^7 spores/mL. In the first trial fungus grew on SDA quickly, forming a thick mat that soon filled the entire petri dish. Therefore, in the second trial cornmeal agar (CMA, Difco Laboratories, Detroit, Mich.) was used to slow the growth of the fungus during the six-day observation period. A thin layer of the spore suspension was spread over the surface of each of 24 cornmeal agar plates using a turntable and bent glass rod, as previously described.
(§5) Filter paper disks were treated with naphthalene, BHT, or DBP at rates of 2 μg, 20 μg, or 200 μg, prepared as in the first trial. On each plate were placed four filter paper disks spaced equidistant from one another (one disk containing each of the three application rates of one of the test compounds, and one disk containing only the hexane control). Each plate was then covered and sealed with parafilm to reduce the release of volatile compounds. The concentration of naphthalene in the headspace was 0.04 μg/cm^3; except in trial 3 below, in which the concentration was 34.6 μg/cm^3, about 700 times the concentration we have observed in termite nest materials. The growth of fungus on and around each filter paper disk was recorded three, four, and five days after treatment. The experiment was then repeated, increasing the rates of naphthalene, BHT, and DBP to 200 μg, 600 μg, and 1000 μg (trial 3).
as §3, §4

Assay [5] relates to Mucor spp. fungus. Nature of the assay: Antifungal filter paper disk test, trial 3 (cornmeal agar, sealed plates, increased rates). Format: cell-based. The method, then: A second trial was conducted with filter papers treated with naphthalene, BHT, or 2,6-di-t-butyl-4-methyl-phenol (“DBP”). A fungal suspension was prepared as in the first trial. Spore concentrations were determined with a counting chamber (Petroff-Hauser, Hauser Scientific Partnership, Horsham, Pa.). Concentrations were adjusted to approximately 10^7 spores/mL. In the first trial fungus grew on SDA quickly, forming a thick mat that soon filled the entire petri dish. […] A thin layer of the spore suspension was spread over the surface of each of 24 cornmeal agar plates using a turntable and bent glass rod, as previously described.
as §5, with “The growth of fungus on and around each filter paper disk was recorded three, four, and five days after treatment.” left out
as §3, §4

[6] abbreviates: trial 2, 0 μg disk (hexane only) on the same sealed plate as the compound's treated disks.
Setting [7] is: trial 3, 0 μg disk (hexane only) on the same sealed plate as the compound's treated disks.

`OCCOc1ccccc1` [2-phenoxyethanol]: the Trail-following behavior result is on record as “Limited trail-following activity” in assay [1] (0.00032 μg/cm); “elicited trail-following behaviors” in assay [1] (C. formosanus workers and soldiers, 0.32, 0.032 and 0.0032 μg/cm); “Limited trail-following activity” in assay [2] (0.00032 μg/cm); “elicited trail-following behaviors” in assay [2] (Reticulitermes spp. workers and soldiers, 0.32, 0.032 and 0.0032 μg/cm).

In the case of `CCCCCCCCOC(=O)CCCCC(=O)OCCCCCCCC` [Adipic dioctyl ester, adipic dioctyl ester], in assay [3] (trial 1, rate 2 μg per disk), the “Fraction Covered, Day 4 (mean percentage of filter paper disk surface covered by fungus)” value is recorded as 44%; the “Fraction Covered, Day 5 (mean percentage of filter paper disk surface covered by fungus)” value is on record as 83%; the “Fraction covered, Day 6 (mean percentage of filter paper disk surface covered by fungus)” value was 94%. Moreover, in assay [3] (trial 1, rate 20 μg per disk), the “Fraction Covered, Day 4 (mean percentage of filter paper disk surface covered by fungus)” value was 20%; the “Fraction Covered, Day 5 (mean percentage of filter paper disk surface covered by fungus)” value turned out to be 80%; the “Fraction covered, Day 6 (mean percentage of filter paper disk surface covered by fungus)” value came out at 62%. Also, in assay [3] (trial 1, rate 200 μg per disk), the “Fraction Covered, Day 4 (mean percentage of filter paper disk surface covered by fungus)” value was found to be 20%; the “Fraction Covered, Day 5 (mean percentage of filter paper disk surface covered by fungus)” value was determined as 75%; the “Fraction covered, Day 6 (mean percentage of filter paper disk surface covered by fungus)” value came out at 91%.

With `Cc1cc(C(C)(C)C)c(O)c(C(C)(C)C)c1` [DBP, 2,6-di-t-butyl-4-methyl-phenol], the “Fraction Covered, Day 3 (mean percentage of filter paper disk surface covered by fungus)” value in assay [4] (setting [6]) amounted to 96%; in assay [4] (trial 2, rate 2 μg per disk) it was 98%; in assay [4] (trial 2, rate 20 μg per disk), 92%; in assay [4] (trial 2, rate 200 μg per disk), 81%; in assay [5] (setting [7]), 40%; in assay [5] (trial 3, rate 200 μg per disk), 0%. Further, the “Fraction Covered, Day 3 (mean percentage of filter paper disk surface covered by fungus)” value in assay [5] (trial 3, rate 600 μg per disk) amounted to 1%; in assay [5] (trial 3, rate 1000 μg per disk), 0%. The “Fraction Covered, Day 4 (mean percentage of filter paper disk surface covered by fungus)” value was 100% in assay [4] (setting [6]); 99% in assay [4] (trial 2, rate 2 μg per disk); 95% in assay [4] (trial 2, rate 20 μg per disk); 91% in assay [4] (trial 2, rate 200 μg per disk); 100% in assay [5] (setting [7]); 94% in assay [5] (trial 3, rate 200 μg per disk). Moreover, the “Fraction Covered, Day 4 (mean percentage of filter paper disk surface covered by fungus)” value in assay [5] (trial 3, rate 600 μg per disk) was 100%; in assay [5] (trial 3, rate 1000 μg per disk), 91%. Further, the “Fraction Covered, Day 5 (mean percentage of filter paper disk surface covered by fungus)” value in assay [4] (setting [6]) came out at 100%; in assay [4] (trial 2, rate 2 μg per disk) it was 99%; in assay [4] (trial 2, rate 20 μg per disk) it was 98%; in assay [4] (trial 2, rate 200 μg per disk), 99%; in assay [5] (setting [7]), 100%; in assay [5] (trial 3, rate 200 μg per disk) it was 93%. Also, the “Fraction Covered, Day 5 (mean percentage of filter paper disk surface covered by fungus)” value is on record as 100% in assay [5] (trial 3, rate 600 μg per disk) and 97% in assay [5] (trial 3, rate 1000 μg per disk). Further, the “Fungal coverage of treated disks” value in assay [5] (trial 3, fourth day) is listed as roughly 100%.

As for `CCCCCCCCOC(=O)c1ccccc1C(=O)OCCCCCCCC` [Dioctyl phthalate, dioctyl phthalate], the “Fraction Covered, Day 4 (mean percentage of filter paper disk surface covered by fungus)” value amounted to 67% in assay [3] (trial 1, rate 2 μg per disk); 32% in assay [3] (trial 1, rate 20 μg per disk); 57% in assay [3] (trial 1, rate 200 μg per disk). The “Fraction Covered, Day 5 (mean percentage of filter paper disk surface covered by fungus)” value in assay [3] (trial 1, rate 2 μg per disk) worked out at 78%; in assay [3] (trial 1, rate 20 μg per disk), 49%; in assay [3] (trial 1, rate 200 μg per disk), 69%. For the same molecule, the “Fraction covered, Day 6 (mean percentage of filter paper disk surface covered by fungus)” value in assay [3] (trial 1, rate 2 μg per disk) was 89%; in assay [3] (trial 1, rate 20 μg per disk), 88%; in assay [3] (trial 1, rate 200 μg per disk), 82%.

For the origin of these results see patent US6352703B1, “Compositions and methods for detecting and killing termites” (Board of Supervisors of Louisiana State University and …, priority 1997, dated 2002).
